pIC50: −log10 of the molar value.
System: 217524-143-R1-J4-PDC spheroids with HUVEC/MSC, viability
Test: Anticancer human tumor 217524-143-R1-J4-PDC patient-derived pancreatic carcinoma cell line growth inhibition [CLK]
Settings: for pIC50: curve of first compound; for viability, T/C: stronger effect = lower value
Procedure, shortened: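 Multi-cell-type spheroids combined patient-derived tumor cells with HUVEC endothelial cells and human mesenchymal stem cells. Paired agents were dosed in half-log steps down from about clinical Cmax, or from 10 microM where Cmax was unknown.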
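Note: spheroids exposed to agents for seven days before reading.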
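Throughout, for viability, T/C: 100% = DMSO vehicle control viability.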

CCc1c2c(nc3ccc(O)cc13)-c1cc3c(c(=O)n1C2)COC(=O)[C@]3(O)CC + CN1CCN(c2cc(C(=O)Nc3cc4cc(-c5cnn(C)c5)ccc4cn3)ccn2)CC1
pIC50 (second compound 0.0316 µM): > 8.50
pIC50 (second compound 0.1 µM): > 8.50
pIC50 (second compound 0.316 µM): > 8.50
pIC50 (second compound 1 µM): > 8.50
pIC50 (second compound 3.16 µM): > 8.50
pIC50 (second compound 10 µM): > 8.50
viability, T/C (second compound 0.0316 µM, first compound 0.00316 µM): 46.2%
viability, T/C (second compound 0.0316 µM, first compound 0.01 µM): 34.1%
viability, T/C (second compound 0.0316 µM, first compound 0.0316 µM): 28.7%
viability, T/C (second compound 0.0316 µM, first compound 0.1 µM): 25.2%
viability, T/C (second compound 0.0316 µM, first compound 0.316 µM): 17.5%
viability, T/C (second compound 0.0316 µM, first compound 1 µM): 6.45%
viability, T/C (second compound 0.1 µM, first compound 0.00316 µM): 35.9%
viability, T/C (second compound 0.1 µM, first compound 0.01 µM): 30.1%
viability, T/C (second compound 0.1 µM, first compound 0.0316 µM): 21.9%
viability, T/C (second compound 0.1 µM, first compound 0.1 µM): 17.5%
viability, T/C (second compound 0.1 µM, first compound 0.316 µM): 14.5%
viability, T/C (second compound 0.1 µM, first compound 1 µM): 5.83%
viability, T/C (second compound 0.316 µM, first compound 0.00316 µM): 14.8%
viability, T/C (second compound 0.316 µM, first compound 0.01 µM): 12.7%
viability, T/C (second compound 0.316 µM, first compound 0.0316 µM): 10.8%
viability, T/C (second compound 0.316 µM, first compound 0.1 µM): 4%
viability, T/C (second compound 0.316 µM, first compound 0.316 µM): 2.32%
viability, T/C (second compound 0.316 µM, first compound 1 µM): 1.82%
viability, T/C (second compound 1 µM, first compound 0.00316 µM): 1.37%
viability, T/C (second compound 1 µM, first compound 0.01 µM): 1.13%
viability, T/C (second compound 1 µM, first compound 0.0316 µM): 0.98%
viability, T/C (second compound 1 µM, first compound 0.1 µM): 1.39%
viability, T/C (second compound 1 µM, first compound 0.316 µM): 1.84%
viability, T/C (second compound 1 µM, first compound 1 µM): 2.32%
viability, T/C (second compound 3.16 µM, first compound 0.00316 µM): 1.13%
viability, T/C (second compound 3.16 µM, first compound 0.01 µM): 0.69%
viability, T/C (second compound 3.16 µM, first compound 0.0316 µM): 1.06%
viability, T/C (second compound 3.16 µM, first compound 0.1 µM): 1.74%
viability, T/C (second compound 3.16 µM, first compound 0.316 µM): 1.87%
viability, T/C (second compound 3.16 µM, first compound 1 µM): 2.05%
viability, T/C (second compound 10 µM, first compound 0.00316 µM): 0.09%
viability, T/C (second compound 10 µM, first compound 0.01 µM): 0.16%
viability, T/C (second compound 10 µM, first compound 0.0316 µM): 0.24%
viability, T/C (second compound 10 µM, first compound 0.1 µM): 0.19%
viability, T/C (second compound 10 µM, first compound 0.316 µM): 0.31%
viability, T/C (second compound 10 µM, first compound 1 µM): 0.19%

From PubChem BioAssay AID2060624 (Molecular Pharmacology Branch, DTP, NCI, 2025)
